In PMC9510826, “Catalytic promiscuity of O-methyltransferases from Corydalis yanhusuo leading to the structural diversity of benzylisoquinoline alkaloids” (Horticulture Research, 2022):

Target: T1, CyOMT2 (Corydalis yanhusuo, UniProt Z9M545XIG0, L253C)
T1 sequence (Z9M545XIG0 1-349 L253C): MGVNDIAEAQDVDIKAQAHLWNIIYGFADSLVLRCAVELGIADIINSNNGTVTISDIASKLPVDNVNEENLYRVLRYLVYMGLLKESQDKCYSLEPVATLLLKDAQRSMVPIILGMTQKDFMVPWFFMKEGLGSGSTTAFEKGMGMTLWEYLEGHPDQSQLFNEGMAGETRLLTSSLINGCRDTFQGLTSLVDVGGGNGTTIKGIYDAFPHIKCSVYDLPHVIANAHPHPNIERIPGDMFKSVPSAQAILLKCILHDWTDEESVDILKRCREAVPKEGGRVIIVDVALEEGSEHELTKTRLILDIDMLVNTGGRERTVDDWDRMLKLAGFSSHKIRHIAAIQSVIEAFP
Assay: UPLC product quantification, Michaelis-Menten fit
Assay type: biochemical
Details: 200 μM SAM, 30 min
Excerpt: UPLC product quantification, Michaelis-Menten fit on CyOMT2

Structure (SMILES)	Km (50 mM phosphate pH 7.0, 40°C) [µM]	Km (50 mM phosphate pH 7.5, 45°C) [µM]
COc1cc2c(cc1O)[C@@H]1Cc3ccc(OC)c(O)c3CN1CC2 [compound 15, scoulerine]	12.2 ± 1.72	–
Oc1ccc(C[C@@H]2NCCc3cc(O)c(O)cc32)cc1 [compound 1, norcoclaurine]	–	19.4 ± 3.39
COc1cc2c(cc1O)CC[n+]1cc3c(OC)c(OC)ccc3cc1-2 [compound 14, jatrorrhizine]	34.8 ± 3.7	–
